Assay results published in patent publication US20250197416A1, “PARTHENOLIDE DERIVATIVES AND USE THEREOF” (University of Rochester, priority 2022, published 2025).

Columns and labels:
[1] = compared with parthenolide; cited from earlier work
[2] = test system: colon cancer cells (HCT-116); assay: MTT cell viability assay, HCT-116; format: cell-based, human
Procedure: (§1) The anticancer activity of the compounds was determined using a MTT (3-[4,5-dimethylthiazol-2-yl]-2,5 diphenyl tetrazolium bromide) assay, which measures cell viability upon incubation of the cells with the compounds. […] Other notable structure-activity insights include the large impact on the linkage utilized for macrocyclization of 14-hydroxy-PTL-derived AB08 and AB24 on the cancer cell specificity of these molecules.
(§2) Experimental Procedures. All cancer cell lines were maintained in a 37° C. humidified incubator with 5% C02. A549, MDA-MB-231, PC-3, SK-N-MC, HeLa, SJSA-1, HCT-116, and SK-MEL-2 cells were cultured in DMEM medium (Gibco) supplemented with 10% FBS (Gibco) and 100 I.U./ml penicillin-streptomycin (Sigma). Adherent cells were dissociated using Accutase (Millipore) or trypsin-EDTA 0.25% (Gibco). Adherent cells were seeded in a 96-well plate at a density of 1000-20,000 cells per well in 180 μl complete DMEM media. Suspension cells were seeded in conical 96-well plates (Nunc) at a density of 30,000 cells per well in 90 ul of complete α-MEM media devoid of phenol red indicator. The plates were incubated in a humidified incubator for 16 hours prior to treatment. […] The resulting OD was measured at 550 nm using a multi-well plate reader (Tecan). […] The resulting absorbance was measured at 570 nm and 600 nm using a multi-well plate reader (Tecan).

[3] = test system: human cancer cells: PC3, SK-N-MC, MDA-MB-231, A549, HeLa, SK-MEL-2, SJSA-1, HCT-116; assay: MTT cell viability assay, panel of cancer cell lines; format: cell-based; conditions: 24 hours; for anticancer activity profile (cytotoxicity spectrum / cancer-type specificity): reduction of cell viability at 10 μM and 20 μM; for anticancer activity (reduction of cancer cell viability): 10 μM and 20 μM
Procedure: as §1
Experimental Procedures. All cancer cell lines were maintained in a 37° C. humidified incubator with 5% C02. A549, MDA-MB-231, PC-3, SK-N-MC, HeLa, SJSA-1, HCT-116, and SK-MEL-2 cells were cultured in DMEM medium (Gibco) supplemented with 10% FBS (Gibco) and 100 I.U./ml penicillin-streptomycin (Sigma). Adherent cells were dissociated using Accutase (Millipore) or trypsin-EDTA 0.25% (Gibco). Adherent cells were seeded in a 96-well plate at a density of 1000-20,000 cells per well in 180 μl complete DMEM media. Suspension cells were seeded in conical 96-well plates (Nunc) at a density of 30,000 cells per well in 90 ul of complete α-MEM media devoid of phenol red indicator. The plates were incubated in a humidified incubator for 16 hours prior to treatment. PTL analogs were prepared as concentrated stocks (2 mM) in DMSO and stored at −30° C. Prior to testing, the analogs were diluted into complete cell culture medium and the media was supplemented with sterile DMSO (10% of final volume). For the initial cytotoxicity screening, the compounds were added to the cells in 20 μl aliquots to give a final concentration of 20 μM and 10 μM parthenologs and 1% DMSO (n=3). Following a 24-hour incubation, the culture media from the adherent cell plates (e.g., HeLa, A549) was aspirated and replaced with 100 pd of 1 mg/mL Thiazolyl Blue Tetrazolium Bromide (MTT, Fisher) in complete culture medium devoid of phenol red. After incubation at 37° C. for 1 hour, the plates were centrifuged (4000 rpm, 5 minutes), the media was removed and 100 ul of DMSO was added to solubilize the formazan product. The resulting OD was measured at 550 nm using a multi-well plate reader (Tecan). Suspension cells were treated for 24 hours in the presence or in the absence of the compounds at 10 μM and 20 μM, followed by measurement of cell viability using alamarBlue stain. After incubation, […] of AlamarBlue (Invitrogen) was added to each well and incubated until color change was observed, typically approximately 20-24 hours, in the control wells (1% DMSO in media, no compound). The resulting absorbance was measured at 570 nm and 600 nm using a multi-well plate reader (Tecan).

[4] = test system: lung adenocarcinoma (A549); assay: MTT cell viability assay, A549; format: cell-based, human; conditions: relative to PTL
Procedure: as §1, §2

[5] = test system: breast cancer cells (MDA-MB-231); assay: MTT cell viability assay, MDA-MB-231; format: cell-based, human; conditions: relative to PTL
Procedure: as §1, §2

[6] = test system: cervical (HeLa) cancer cells; assay: MTT cell viability assay, HeLa; format: cell-based, human; conditions: 10 μM and 20 μM, 24 hours
Procedure: as §1, §2

leukemia cell line HL-60 = assay: alamarBlue cell viability assay, HL-60; format: cell-based; conditions: 10 μM and 20 μM, 24 hours
Procedure: The antileukemic activity of the PTL analogs was evaluated using the leukemia cell line HL-60 and the leukemia stem cell line M9-ENL1. To measure the compound activity against hematologic cells, cells were treated for 24 hours in the presence or in the absence of the PTL analog at 10 μM and 20 μM, followed by measurement of cell viability using alamarBlue stain (FIG. 9).
as §2, with “treatment. PTL analogs were prepared as concentrated stocks (2 mM) in DMSO and stored at −30° C.” for “treatment.”

SMILES | anticancer activity profile (cytotoxicity spectrum / cancer-type specificity) [3] | anticancer activity (reduction of cancer cell viability) [3] | further results
CC1=CCCC2(C)OC2C2OC(=O)C(C)C2CC1 (stereo not shown) | – | – | anticancer and anti-inflammatory activity after reduction of the α-methylene-γ-lactone group [1]: complete loss of activity
C=C1CC[C@H]2C(=C)C(=O)O[C@@H]2[C@H]2O[C@]2(C)CCC=CCCC(=O)OC1 [AB07] | – | – | increased potency compared to PTL, based on half-maximal lethal dose (LD50) ([2]; HCT-116, relative to PTL): > 3 fold
C=C(C)[C@@H]1C[C@H]2C(=C)C(=O)O[C@@H]2[C@H]2O[C@]2(C)CCC=CCCC(=O)O1 [AB10] | intermediate | – | –
C=C1C(=O)O[C@@H]2[C@H]3O[C@]3(C)CC[C@@H]3C(=CCn4c(=O)n(-c5ccccc5)c(=O)n43)CC[C@@H]12 [AB16] | intermediate | potent anticancer activity against at least six cell lines | –
C=C1C(=O)O[C@@H]2[C@H]3O[C@]3(C)CCC3C(=CCC(C#N)(C#N)C3(C#N)C#N)CC[C@@H]12 (stereo partly shown) [AB17] | – | lower activity against the same cell lines | –
C=C1C(=O)O[C@@H]2[C@H]3O[C@]3(C)CC[C@@H]3C(=CC[C@@H]4C(=O)OC(=O)[C@@H]43)CC[C@@H]12 [AB18] | – | lower activity against the same cell lines | –
C=C1C(=O)O[C@@H]2[C@H]3O[C@]3(C)CCC3C(=CCC4=C3C(O)C=CC4O)CC[C@@H]12 (stereo partly shown) [AB19] | intermediate | potent anticancer activity against at least six cell lines | –
C=C/C1=C\CC[C@@]2(C)O[C@@H]2[C@H]2OC(=O)C(=C)[C@@H]2CC1 [AB20] | high cancer-type specificity | – | –
C=C1CC[C@H]2C(=C)C(=O)O[C@@H]2[C@@H]2O[C@]2(C)CCC/C=C\Cc2ccccc2C(=O)OC1 [AB24] | broad-spectrum cytotoxicity | – | –
C=C(C)[C@@H]1C[C@H]2C(=C)C(=O)O[C@@H]2[C@@H]2O[C@]2(C)CCCC=CCc2ccccc2C(=O)O1 [AB25] | broad-spectrum cytotoxicity | – | enhanced potency compared to PTL, based on half-maximal lethal dose (LD50) [4]: 210 fold; enhanced potency compared to PTL, based on half-maximal lethal dose (LD50) [5]: 210 fold
C=CCC[C@@]1(C)O[C@@H]1[C@H]1OC(=O)C(=C)[C@@H]1CCC(=C)C=O [AB26] | high cancer-type specificity | – | –
C=C1C(=O)O[C@@H]2[C@H]3O[C@]3(C)CC/C=C3\COC(=O)O[C@H]3C[C@@H]12 [JMB02] | – | less potent anticancer activity | –
C=C1C(=O)O[C@@H]2[C@H]3O[C@]3(C)CC/C=C3\COS(=O)(=O)O[C@H]3C[C@@H]12 [JMB03] | high cancer-type specificity | – | selective activity against colon (HCT-116) cancer cells ([2]; 10 μM and 20 μM, 24 hours): selective activity; selective activity against cervical (HeLa) cancer cells [6]: selective activity
C=C1C(=O)O[C@@H]2[C@H]3O[C@]3(C)CCC(Sc3ccccc3)C(C=O)C(=O)C[C@@H]12 (stereo partly shown) [JMB06] | – | – | anticancer activity against HL-60 (leukemia cell line HL-60): relatively selective anticancer activity
C=C1C(=O)O[C@@H]2[C@H]3O[C@]3(C)CCC(C3C=CC(=O)O3)C(C=O)C(=O)C[C@@H]12 (stereo partly shown) [JMB07] | – | – | anticancer activity against HL-60 (leukemia cell line HL-60): relatively selective anticancer activity
C=C1C(=O)O[C@@H]2[C@H]3O[C@]3(C)CC/C=C(\C)C(=O)C[C@@H]12 [JMB08] | intermediate | – | –
